Data set [1] concerns selectively-bred alcohol preferring rats. The data set is described as follows: Alcohol Preferring Rats In Vivo Model (two-bottle choice). Also noted: species or system rat. The conditions noted are these: for 6 hr Ethanol (alcohol intake) / 6 hr Preference (alcohol preference): 6 h after administration; for 6 hr Ethanol (alcohol intake) / 6 hr Preference (alcohol preference) / 24 hr Ethanol (alcohol intake) / 24 hr Preference (alcohol preference): mean ± SEM; for 24 hr Ethanol (alcohol intake) / 24 hr Preference (alcohol preference): 24 h after administration. As for the experimental part: Adult male selectively-bred alcohol preferring rats (which are known in the art to be useful for the study of the effect of test compounds on vountary alcohol intake) were grouped into three groups: vehicle and Compound #8 (50 and 100 mg/kg, po). Rats were housed individually in wire mesh cages under a constant room temperature of 22±1° C. and 12:12 light-dark cycle (8:00-20:00, dark). The animals were fed Agway Prolab Rat/Mouse/ Hamster 3000 formula and water ad libitum.
Alcohol intake was determined using the standard two-bottle choice method. Animals were first given free access to water in a graduated Richter tube for 2 days. Then they were given access to only a solution of 10% (v/v) ethanol for 3 consecutive days. During this period animals became accustomed to drinking from Richter tubes and to the taste and pharmacological effects of alcohol. Thereafter, they were given free access to both water and a solution of 10% alcohol for at least 4 consecutive weeks and throughout the study period. Rats had free access to food. Water and alcohol intake were recorded at 4, 6 and 24 hours after the treatment, whereas food intake was measured at 24 hour. Animals' body weight was measured every day.
After establishment of a stable baseline for alcohol, food, and water intake, rats were administered either vehicle or Compound #8 via oral gavage using a cross-over design with random assignment. To be able to compare the efficacy of these compounds on alcohol intake with an established FDA-approved drug, naltrexone, was included as a positive control. Same rats were given an oral dose of naltrexone (20mg/kg). The interval between treatments was at least 3 days. Alcohol and water intake were recorded 4, 6 and 24 h after the drug administration and food intake was recorded at 24 hr. A total of 8-10 animals per group were used.
The results below are presented as means ±SEM. Alcohol intake (g/kg) was calculated by multiplying the volume of alcohol consumed in ml by 10% and 0.7893 (ethanol density)/body weight in kg. Alcohol preference, expressed as percentage, was calculated as follows: (volume of alcohol consumed in ml/total fluid intake in ml)×100 (Rezvani and Grady, 1994; Rezvani et al., 1997). Statistical differences between drug-treated and control groups were determined by using ANOVA and Turkey Student's t test for multiple comparison.

The structures appear in SMILES notation.

Take `O=C1CC[C@@]2(O)[C@H]3Cc4ccc(O)c5c4[C@@]2(CCN3CC2CC2)[C@H]1O5` [Naltrexone, naltrexone, reference compound]: in data set [1] (20 mg/kg oral), the “6 hr Ethanol (alcohol intake)” value is 0.77 ± 0.24 g/kg, the “6 hr Preference (alcohol preference)” value was 64 ± 12%, the “24 hr Ethanol (alcohol intake)” value came to 4.48 ± 0.57 g/kg and the “24 hr Preference (alcohol preference)” value worked out at 76 ± 9%.

On to `CN(CC1COc2ccccc2O1)S(N)(=O)=O` (racemic), for which the melting point lay within 97 to 98 °C.

The compound `CN(C)S(=O)(=O)NCC1COc2ccccc2O1` (racemic) registered a melting point of 76 to 78 °C.

For `NS(=O)(=O)NC[C@H]1COc2cc(Cl)c(Cl)cc2O1`, the melting point lay in the range of 119 to 121 °C.

With `NS(=O)(=O)NC[C@H]1COc2cc(Cl)ccc2O1` [Compound #8, (2S)-(−)-N-(6-Chloro-2,3-dihydro-benzo[1,4]dioxin-2-ylmethyl)-sulfamide], in data set [1] (50 mg/kg po), the “6 hr Ethanol (alcohol intake)” value was 1.28 ± 0.25 g/kg, the “6 hr Preference (alcohol preference)” value stood at 67 ± 11%, the “24 hr Ethanol (alcohol intake)” value is recorded as 4.79 ± 0.5 g/kg and the “24 hr Preference (alcohol preference)” value is given as 77 ± 7%. Also, in data set [1] (100 mg/kg po), the “6 hr Ethanol (alcohol intake)” value is 1.33 ± 0.17 g/kg, the “6 hr Preference (alcohol preference)” value is on record as 75 ± 8%, the “24 hr Ethanol (alcohol intake)” value is on record as 4.35 ± 0.66 g/kg and the “24 hr Preference (alcohol preference)” value turned out to be 70 ± 9%. In addition, in data set [1] (alcohol-preferring rats, 6 h post-dosing, 50 and 100 mg/kg dose), the “effect on ethanol consumption” value was “decreased ethanol consumption”.

As for `NS(=O)(=O)NCC1CCc2ccccc2O1` (stereo not drawn), the melting point lay in the range of 100 to 101 °C.

As to `NS(=O)(=O)NCCC1COc2ccccc2O1` (stereo not drawn), the melting point was in the range of 101 to 103 °C.

As usually defined, the melting point is the temperature, or range, at which the solid turns liquid.

The values above are taken from patent US8691867B2, “Use of benzo-fused heterocycle sulfamide derivatives for the treatment of substance abuse and addiction” (Janssen Pharmaceutica NV, priority 2005, dated 2014).
